Data from patent publication EP1059033A1, “INDUSTRIAL ANTIBACTERIAL/ANTIFUNGAL AGENTS, ALGICIDES AND ANTI-BIOLOGICAL ADHESION AGENTS CONTAINING BENZYLAMINES” (Nissan Chemical Industries, Ltd., priority 1998, dated 1999).
Values after ≈ are worked out from the molar mass of the structure shown.

Tests used:
Type in all cases: cell-based
[1] = tested on: freshwater green alga (Selenastrum capricornutum); test: Inhibition of propagation of freshwater green alga (Example 4); details: after 72 hours, cell number vs non-treated lot; for inhibition at 0.05 ppm: 50ppb, read-out: Propagation inhibiting rate(%) 50ppb; for inhibition at 0.5 ppm: 500ppb, read-out: Propagation inhibiting rate(%) 500ppb
Procedure: A predetermined amount of each of the compounds of the invention was dissolved in a culture medium containing 10^5 /ml of a freshwater green alga (Selenastrum capricornutum) at a logarithmic growth phase to prepare samples having a concentration of the compound of the invention in the medium of 500 ppb and 50ppb respectively. The samples were stationary cultured at 23±1 °C for […] under continuous illumination.
After 72 hours, the number of cells was measured using a hemacytometer to obtain propagation rate. The propagation inhibiting rate was calculated from comparison with the non-treated lot.

[2] = tested on: Trichophyton mentagrophytes; details: 72 h, 100 ppm
Procedure: 31.3 ml of Trichophyton mentagrophytes to be tested was added to 125 ml of a potato dextrose agar culture medium (Nissui Seiyaku Co.). The medium was stirred not to foam the solutions, poured into plates uniformly and solidified.
Thereafter, predetermined amounts of the compounds of the invention were weighted and diluted with acetone to predetermined concentrations.
Paper disks were impregnated with samples containing predetermined amounts of the compounds of the invention, laid on a filter, dried with air and placed on a plate containing test microbe at equal intervals.
Trichophyton mentagrophytes was cultured at 28 °C for 3 days in a thermostatic chamber and the diameter of each inhibiting zone was measured to evaluate the activity of each compound. Symbols in the table mean the followings; • A: Trichophyton mentagrophytes, • ++: strongly inhibiting zone (equal to or more than 21 mm) is observed, • +: inhibiting zone (10 to 20 mm) is observed, • -: no inhibiting zone is observed.

[3] = tested on: Trichophyton mentagrophytes; test: Agar dilution MIC (Example 2); details: 168 h, agar plate, 27 °C, 7 days
Procedure: Series of diluted samples (20000, 10000, 5000, 2500, 2000, 1250, 625, 313, 156, 78, 39, 20, 10, 5, 2.5, 1.25 mg/l) of the compounds of the invention were prepared using dimethylsulfoxide. A sensitive culture medium-N (Nissui Seiyaku Co.) was used for bacteria and a potato dextrose agar culture medium (Nissui Seiyaku Co.) was used for fungi. 0.5 ml of each sample was added to and mixed with 9.5 ml of the culture medium, poured into a Petri dish and solidified to obtain a plate. As a result, the concentration of the compounds of the invention in the agar culture medium were 1000, 500, 250, 125, 100, 62.5, 31.3, 15.6, 7.8, 3.9, 2.0, 1.0, 0.5, 0.25, 0.125, 0.062 mg/l. The bacterium inoculated were cultured in a bouillon for the assay of sensitivity (Nissui Seiyaku Co.) at 37 °C for 20 hours, and the fungi were cultured in the potato dextrose agar culture medium (Nissui Seiyaku Co.) for 10 days and then a 10^6 CFU/ml suspension was prepared from each of them. A test bacteria or fungi suspension was streaked on an agar plate containing the compound of the present invention with platinum wire loop, and the agar plate was cultured at 37±1 °C for 18 to 20 hours for bacteria or at 27 °C for 7 days for fungi. A concentration at which no growth was seen was taken as minimum inhibitory concentration [MIC(mg/l)]. Symbols in the table mean the followings; • A: Bacillus subtilis, • B: Trichophyton mentagrophytes, • C: Rhodotorula mucilaginosa.

| MIC [3] [µg/mL] | Compound | inhibition at 0.05 ppm [1] [%] | inhibition at 0.5 ppm [1] [%] | Judgment (Target bacteria: A) [2] |
| --- | --- | --- | --- | --- |
|  | CN(Cc1ccc(C(C)(C)C)cc1)Cc1cc(Cl)cc(Cl)c1 [Compound 1] | 79 | 94 | ++ (strongly inhibiting zone (equal to or more than 21 mm) is observed) |
| 0.25 (≈ 0.828 µM) | CN(Cc1ccc(C(C)(C)C)cc1)Cc1cccc(Cl)c1 [Compound 10] | 87 | 95 | ++ (strongly inhibiting zone (equal to or more than 21 mm) is observed) |
| 1 (≈ 3.31 µM) | CN(Cc1ccc(C(C)(C)C)cc1)Cc1ccccc1Cl [Compound 17] |  | 83 |  |
| 1 (≈ 2.97 µM) | CN(Cc1ccc(C(C)(C)C)cc1)Cc1ccc(Cl)cc1Cl [Compound 18] |  |  |  |
| 7.8 (≈ 21.8 µM) | CN(Cc1ccc(C(C)(C)C)cc1)Cc1c(F)c(F)c(F)c(F)c1F [Compound 21] |  |  |  |
| 1 (≈ 2.97 µM) | CN(Cc1ccc(C(C)(C)C)cc1)Cc1cc(Cl)ccc1Cl [Compound 22] |  |  |  |
| 0.125 (≈ 0.372 µM) | CN(Cc1ccc(C(C)(C)C)cc1)Cc1cccc(Cl)c1Cl [Compound 24] |  | 85 |  |
| 15.6 (≈ 50.9 µM) | CN(Cc1ccc(Cl)c(Cl)c1)C1CCc2ccccc21 (centres unmarked) [Compound 25] |  | 95 |  |
| 1 (≈ 3.23 µM) | CN(Cc1ccc(C(C)(C)C)cc1)C1CCOc2ccccc21 (centres unmarked) [Compound 26] |  |  |  |
| 1 (≈ 2.7 µM) | CN(Cc1ccc(C(C)(C)C)cc1)Cc1c(Cl)ccc(Cl)c1Cl [Compound 33] |  |  |  |
| 2 (≈ 5.79 µM) | CCCCCCc1ccc(CN(C)Cc2cccc3ccccc23)cc1 [Compound 36] |  | 83 |  |
| 0.5 (≈ 1.51 µM) | CN(Cc1ccc(Cl)c(Cl)c1)Cc1cccc2ccccc12 [Compound 37] |  | 69 |  |
| 7.8 (≈ 26.8 µM) | COc1ccc(CN(C)Cc2cccc3ccccc23)cc1 [Compound 38] |  | 75 |  |
| 3.9 (≈ 14.2 µM) | Cc1ccc(CN(C)Cc2cccc3ccccc23)cc1 [Compound 39] |  | 90 |  |
|  | CN(Cc1cc(Cl)cc(Cl)c1)Cc1cccc2ccccc12 [Compound 40] | 61 | 61 |  |
| 7.8 (≈ 27 µM) | Cc1ccc(CN(C)Cc2cccc3ccccc23)cc1C [Compound 41] | 66 | 97 |  |
| 15.6 (≈ 52.5 µM) | CN(Cc1ccc(F)c(F)c1)Cc1cccc2ccccc12 [Compound 45] |  | 87 |  |
| 15.6 (≈ 54.5 µM) | CN(Cc1ccc(C#N)cc1)Cc1cccc2ccccc12 [Compound 46] |  | 96 |  |
| 7.8 (≈ 24.4 µM) | CC(C)Oc1ccc(CN(C)Cc2cccc3ccccc23)cc1 [Compound 47] | 63 | 71 |  |
| 15.6 (≈ 56.6 µM) | Cc1cccc(CN(C)Cc2cccc3ccccc23)c1 [Compound 50] |  | 93 |  |
| 15.6 (≈ 48.8 µM) | CCCOc1ccc(CN(C)Cc2cccc3ccccc23)cc1 [Compound 51] |  |  |  |
